Reference: patent US20230172928A1 (priority 2020, published 2023)
Values joined by “and” are separate entries in the source; they are usually repeats but may differ in a detail not shown here. Equal values may be shown once. Read-outs that look alike come from different tables or passages of the source.

Legend:
PC9 cells = experiment: Cell proliferation / combination dose matrix assay (CellTiter-Glo); type: cell-based, human
Method: (§1) Human cancer cell lines originated from the CCLE (Cancer Cell Line Encyclopedia) authenticated by single-nucleotide polymorphism analysis and tested for mycoplasma infection using a PCR-based detection technology (IDEXX BioAnalytics) when CCLE was established in 2012. All cell lines used were directly thawed from the CCLE collection stock. All cell lines were cultured in RPMI Medium (ThermoFisher Scientific) except HT-29 (McCoy's 5A), RKO (MEMα), MDST8 (DMEM), A-427 (MEMα) and MIA PaCA-2 (DMEM), supplemented with 10% FBS (VWR). Cell lines were used within 15 passages of thawing and continuously cultured for less than 6 months.
(§2) For combination dose matrix assay, 2000 to 3000 cells were seeded in 96-well plates in 80 μL media per well. On the second day, serial dilutions of the two combination agents were subsequently added, each in 20 μL media at 6× of final indicated concentrations. 3 days later, cell viability was measured by the CellTiter-Glo Assay (Promega #G7573). The mean and standard deviation (n=3) of percentages of inhibition (relative to the DMSO-treated control) of compound-treated cells and synergy scores between the two compounds were determined. Synergy scores greater than 2 are considered to have synergistic rather than additive effects.
(§3) Statistical analyses were performed and curve fit and IC50 values were generated using GraphPad Prism 8 software. Statistical significance was determined using unpaired, paired student t test, or Mann-Whitney test. Significance was set at p=0.05.

NCI-H1975 cells = experiment: as above; type: cell-based, human; settings: for IC50: Homo sapiens, NCI-H1975, EGFR L858R/T790M
Method: (§4) Human cancer cell lines originated from the CCLE (Cancer Cell Line Encyclopedia) authenticated by single-nucleotide polymorphism analysis and tested for mycoplasma infection using a PCR-based detection technology (IDEXX BioAnalytics) when CCLE was established in 2012. All cell lines used were directly thawed from the CCLE collection stock. All cell lines were cultured in RPMI Medium (ThermoFisher Scientific) except HT-29 (McCoy's 5A), RKO (MEMα), MDST8 (DMEM), A-427 (MEMα) and MIA PaCA-2 (DMEM), supplemented with 10% FBS (VWR). Cell lines were used within 15 passages of thawing and continuously cultured for less than 6 months. For combination dose matrix assay, 2000 to 3000 cells were seeded in 96-well plates in 80 μL media per well. On the second day, serial dilutions of the two combination agents were subsequently added, each in 20 μL media at 6× of final indicated concentrations. 3 days later, cell viability was measured by the CellTiter-Glo Assay (Promega #G7573). The mean and standard deviation (n=3) of percentages of inhibition (relative to the DMSO-treated control) of compound-treated cells and synergy scores between the two compounds were determined. […] Statistical analyses were performed and curve fit and IC50 values were generated using GraphPad Prism 8 software. Statistical significance was determined using unpaired, paired student t test, or Mann-Whitney test. Significance was set at p=0.05. […] After 3 days (PC14) or 6 days (NCI-H1975), cell proliferation was measured using the Cell Titer-Glo® assay and luminescent signals of each dose combination were normalized to that of the DMSO (vehicle control) group.

PC14 cells [1] = experiment: as above; type: cell-based, human; settings: for IC50: Homo sapiens, PC-14, PC14, EGFR ex19del
Method: as §4

HCC2279 cells = experiment: as above; type: cell-based; settings: Homo sapiens; HCC2279, EGFR ex19del
Method: as §1, §2, §3

HCC4006 cells = experiment: as above; type: cell-based; settings: Homo sapiens; HCC4006, EGFR ex19del
Method: as §1, §2, §3

NCI-H1650 cells = experiment: as above; type: cell-based; settings: Homo sapiens; NCI-H1650, EGFR ex19del
Method: as §1, §2, §3

[2] = system: pERK in KYSE-520 (esophageal squamous cell carcinoma) cells; experiment: in vitro pERK inhibition; type: cell-based; settings: Homo sapiens
[3] = system: pERK in DETROIT-562 (pharyngeal squamous cell carcinoma) cells; experiment: in vitro pERK inhibition; type: cell-based; settings: Homo sapiens
[4] = system: KYSE-520 (esophageal squamous cell carcinoma) cells; experiment: in vitro antiproliferation; type: cell-based; settings: Homo sapiens
[5] = system: DETROIT-562 (pharyngeal squamous cell carcinoma) cells; experiment: in vitro antiproliferation; type: cell-based; settings: Homo sapiens
[6] = system: EGFR-dependent DETROIT-562 cancer cell line; experiment: In vivo SHP2 inhibition and efficacy, DETROIT-562 model; settings: orally-administered, 20 mg/kg
PC14 cells [7] = experiment: Immunoblot of PC14 cell lysates (p-ERK, c-PARP, BIM); type: cell-based, human; settings: nazartinib 0.1 or 0.3 μM, 3 μM TNO155 or combination, 4 h or 24 h
Method: For immunoblotting: Cells (200,000 to 750,000) in 2 mL growth media were seeded in 6-well plates (Corning, #3506). After 24 hours, cells were treated with compounds or growth factors at the indicated concentrations and duration. Cells were lysed on ice in RIPA buffer (Boston Bioproduct #BP-115) supplemented with 1 mM EDTA and Halt Protease and Phosphatase Inhibitor Cocktail (Thermo Fisher Scientific #1861281). Lysates were centrifuged at 14,000 rpm at 4° C. for 15 minutes and protein concentrations were determined using BCA protein assay (Thermo Fisher Scientific). […] The bound primary antibodies were visualized using Goat anti-rabbit IgG secondary antibody conjugated with Alexa Fluor 700 and goat anti-mouse IgG secondary antibody conjugated with IRDye 800 CW and scanning with an Odyssey Infrared Imager System (Li-Cor). […]

[8] = TNO155 regimens tested in patients; type: in vivo, human; settings: 60 mg QD 2 weeks on/1 week off and 40 mg QD 3 weeks on/1 week off
Method: (§5) The starting dose of nazartinib in this study is 150 mg QD, dosed continuously. In CEGF816X2101, the first-in-human study of nazartinib, doses of nazartinib from 75 mg daily to 350 mg daily were investigated. […] Thus the starting dose of 20 mg QD, 2 weeks on/1 week off provides an adequate tolerability margin for combination with nazartinib 150 mg QD.

[9] = system: EGFR L858R model 29666HXXTM; settings: osimertinib 10 mpk daily, TNO155 10 mpk BID
[10] = system: EGFR L858R model 29667HXXTM; settings: osimertinib 10 mpk daily, TNO155 10 mpk BID
[11] = system: EGFR L858R model 29665HXXTM; settings: osimertinib 10 mpk daily, TNO155 10 mpk BID
[12] = mice
CYP3A4 = CYP3A4 (Homo sapiens, UniProt P08684); experiment: CYP3A4 interaction / metabolism
Chain of CYP3A4 (P08684 whole entry): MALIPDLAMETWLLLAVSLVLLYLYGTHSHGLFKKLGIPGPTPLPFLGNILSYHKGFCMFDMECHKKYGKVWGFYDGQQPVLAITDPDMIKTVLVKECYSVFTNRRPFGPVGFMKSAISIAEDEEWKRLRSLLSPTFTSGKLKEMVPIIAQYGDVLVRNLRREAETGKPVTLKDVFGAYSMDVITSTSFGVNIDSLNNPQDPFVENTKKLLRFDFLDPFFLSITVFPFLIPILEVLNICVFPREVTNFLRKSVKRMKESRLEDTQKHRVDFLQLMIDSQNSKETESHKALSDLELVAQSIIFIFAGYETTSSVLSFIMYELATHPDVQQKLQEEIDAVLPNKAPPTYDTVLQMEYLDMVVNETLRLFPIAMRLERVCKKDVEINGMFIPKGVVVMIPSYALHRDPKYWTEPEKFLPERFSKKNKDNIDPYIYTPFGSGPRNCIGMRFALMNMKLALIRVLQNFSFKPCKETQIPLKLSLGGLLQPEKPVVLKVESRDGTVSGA

HCC827 cells = experiment: Cell proliferation / combination dose matrix assay (CellTiter-Glo); type: cell-based; settings: Homo sapiens, HCC827, HCC827, EGFR ex19del
NCI-H3255 cells = experiment: as above; type: cell-based; settings: Homo sapiens, NCI-H3255, NCI-H3255, EGFR L858R
Method: as §1, §2, §3

[13] = system: patients with EGFRmutated NSCLC; experiment: First-in-human study of nazartinib (CEGF816X2101); type: in vivo; settings: 75 mg to 350 mg QD
Method: Nazartinib has been studied in 7 clinical trials.
as §5

[14] = Adverse events of decreased left ventricular ejection fraction; set-up: species or system human; settings: in vivo
Excerpt: Patients with EGFR-mutant NSCLC have a high disease control rate with EGFR inhibitors (e.g., erlotinib, gefitinib, osimertinib), but resistance invariably develops. Resistance mechanisms are heterogeneous, but commonly result in restoration of mutant EGFR signaling and/or amplification or overexpression of RTKs other than EGFR (such as MET) or of their ligands.

[15] = Tagrisso prescribing information; cited from earlier work
[16] = Homo sapiens, PC-9, PC9, EGFR ex19del

Compound | IC50 (PC9 cells; [16]) [nM] | IC50 (NCI-H1975 cells) [nM] | IC50 (PC14 cells [1]) [nM] | IC50 (HCC2279 cells) [nM] | IC50 (HCC4006 cells) [nM] | IC50 (NCI-H1650 cells) [nM] | p-ERK levels (PC14 cells [7]) | anti-tumor activity (tumor volume) [9] | anti-tumor activity (tumor volume) [10] | anti-tumor activity (tumor volume) [11] | also measured
C[C@@H]1OCC2(CCN(c3cnc(Sc4ccnc(N)c4Cl)c(N)n3)CC2)[C@@H]1N [TNO155, (3S,4S)-8-(6-amino-5-((2-amino-3-chloropyridin-4-yl)thio)pyrazin-2-yl)-3-methyl-2-oxa-8-azaspiro[4.5]decan-4-amine] | < 1500 | > 10000 | 5010 | > 10000 | > 10000 | > 10000 | effectively reduced p-ERK levels at 4 h but also suffered a rebound at 24 h | effectively slowed down the tumor growth | minimal activity | minimal activity | IC50 (PC9 cells; PC9, EGFR ex19del): 1460 nM; single agent activity (NCI-H1975 cells; NCI-H1975, low concentrations, e.g. 0.124 μM): lacks single agent activity; single agent activity (PC14 cells [1]; PC14, low concentrations, e.g. 0.124 μM): lacks single agent activity; IC50 [2]: 8 nM and 0.0034 µg/mL; IC50 [3]: 35 nM; IC50 [4]: 100 nM; IC50 [5]: 470 nM; decrease in DUSP6 mRNA transcript [6]: approximately 95%; regression ([6]; twice-daily schedule): 47%; tolerability [8]: tolerated; half-life [12]: short half-life; maximum tolerated dose ([12]; twice a day (BID)): 20 mg per kilogram body weight (mpk); CYP3A4 induction / inhibition (CYP3A4; human): neither an inducer nor inhibitor of CYP3A4
Cc1cc(C(=O)Nc2nc3cccc(Cl)c3n2[C@@H]2CCCCN(C(=O)/C=C/CN(C)C)C2)ccn1 [Nazartinib, (R,E)-N-(7-chloro-1-(1-(4-(dimethylamino)but-2-enoyl)azepan-3-yl)-1H-benzo[d]imidazol-2-yl)-2-methylisonicotinamide] | 10 | 170 | 50 | > 3000 | 60 | > 3000 | rebound of p-ERK levels was observed after 24 h | – | – | – | IC50 (HCC827 cells): 40 nM; IC50 (NCI-H3255 cells): 10 nM; anti-tumor efficacy [13]: anti-tumor efficacy was observed at all doses; maximum tolerated dose [13]: not established; adverse events of decreased left ventricular ejection fraction [14]: not associated with adverse events of decreased left ventricular ejection fraction; metabolism (CYP3A4): primarily metabolized by CYP3A4
C=CC(=O)Nc1cc(Nc2nccc(-c3cn(C)c4ccccc34)n2)c(OC)cc1N(C)CCN(C)C [osimertinib, reference compound] | – | – | – | – | – | – | – | only transient efficacy | modest | strong | adverse events of decreased left ventricular ejection fraction [15]: Such events have been described
